One series addresses BSA (Bos taurus, UniProt P02769). The series is described as follows: Phage ELISA on BSA (background control protein). It counts as binding. How it is done:
96 well plates were coated overnight with GIT receptor, BSA and, optionally, IDE (insulin degrading enzyme, an irrelevant His-fusion protein) or hTF. The plates were blocked for one hour with 0.5% BSA-PBS. After clarification, the amplified phage were diluted 1:100 in 1% BSA plus 0.05% Tween 20 in PBS and added to the plates. Following incubation of the plates on a rotator for 1 to 2 hours, the plates were washed 5 times with 1% BSA plus 0.05% Tween 20 in PBS. Dilute anti-M13-HRP conjugate (anti-M13 antibody linked to horse radish peroxidase (HRP)) was added to all the wells and the plate was incubated for one hour on a rotator. After the plates were washed 5 times, as described above, TMB substrate was added to the wells. The plates were read at 650 nm absorbance.
A general note: An ELISA detects its analyte on a solid surface through an enzyme-linked reagent.

Series [1] is described as follows: Drug potency, peptide loading and size of coacervated particles. It counts as physicochemical. The note with it: formulation 1 particles (coacervation), blend; for Insulin (insulin potency): coated with the named peptide; for Peptide (level of peptide coated onto the particles): measured by fluorescence.
The subject of series [2] is P100 membrane fractions derived from Caco-2 cells. The series is described as follows: Dansylated peptide ELISA on P100: PAX2 and HAX42 peptides relative binding. The note with it: PAX2 peptides, ratio to ZElan021 (HAX42 = 1.00); for Binding value at 20 μg/ml: first 20 μg/ml column.
The test system is the same in series [3]. The series is described as above. The note with it: ratio to ZElan021 (HAX42 = 1.00).

Peptide text beside a SMILES is read from it. * marks the point of attachment. Dansyl = CN(C)c1cccc2c(S(=O)(=O)*)cccc12

Sequence of BSA (P02769 25-607): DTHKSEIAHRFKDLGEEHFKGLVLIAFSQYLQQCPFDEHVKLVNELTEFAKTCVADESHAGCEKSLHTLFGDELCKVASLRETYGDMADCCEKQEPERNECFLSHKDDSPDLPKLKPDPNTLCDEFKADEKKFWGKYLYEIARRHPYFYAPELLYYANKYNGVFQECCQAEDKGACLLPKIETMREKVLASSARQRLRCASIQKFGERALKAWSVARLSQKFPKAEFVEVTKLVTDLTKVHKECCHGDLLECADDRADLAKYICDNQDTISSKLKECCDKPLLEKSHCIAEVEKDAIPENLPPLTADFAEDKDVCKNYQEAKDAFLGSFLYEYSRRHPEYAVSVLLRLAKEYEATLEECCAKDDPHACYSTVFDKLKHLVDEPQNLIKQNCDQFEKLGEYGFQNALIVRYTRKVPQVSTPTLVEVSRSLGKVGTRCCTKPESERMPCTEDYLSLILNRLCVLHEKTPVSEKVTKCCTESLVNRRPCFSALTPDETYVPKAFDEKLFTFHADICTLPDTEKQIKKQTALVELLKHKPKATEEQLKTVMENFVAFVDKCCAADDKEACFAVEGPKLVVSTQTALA

“RYKHDIGCDAGVDKKSSSVRGGCGAHSSPPRAGRGPRGTMVSRL [DCX8]” gave a BSA with BSA (Table 3) of 0.063 OD. In addition, in series [1], the “Insulin (insulin potency)” value is recorded as 59.1 mg/g and the “Peptide (level of peptide coated onto the particles)” value was 1.87 µL/mg.
Consider “RVGQCTDSDVRRPWARSCAHQGCGAGTRNSHGCITRPLRQASAH [SNi10]”, for which the BSA with BSA (Table 1, phage panned on hSI) stood at 0.051 OD. In series [1], the “Insulin (insulin potency)” value amounted to 59.5 mg/g and the “Peptide (level of peptide coated onto the particles)” value came to 1.75 µL/mg.
`CC(C)C[C@H](NC(=O)[C@H](CCCNC(=N)N)NC(=O)[C@H](CCCNC(=N)N)NC(=O)[C@H](CC(N)=O)NC(=O)[C@H](Cc1c[nH]cn1)NC(=O)[C@H](CO)NC(=O)[C@H](C)NC(=O)[C@@H](N)CCCCNS(=O)(=O)c1cccc2c(N(C)C)cccc12)C(=O)N[C@@H](CCCNC(=N)N)C(=O)N[C@H](C(=O)N[C@@H](CCCNC(=N)N)C(N)=O)[C@@H](C)O` [ZElan073] (H-K(Dansyl)ASHNRRLRTR-NH2): the “Binding value at 50 μg/ml (Southern Ab)” value in series [2] is 0.49. For the same compound, the “Binding value at 20 μg/ml” value in series [2] is recorded as 0.07. Further, the “Binding value at 50 μg/ml” value in series [2] (first 50 μg/ml column) was −0.11; in series [2] (second 50 μg/ml column) it was 0.49. The “Binding value at 50 μg/ml (Jackson Ab)” value in series [3] came to 0.66.
For `CC(C)C[C@H](NC(=O)[C@H](CCCNC(=N)N)NC(=O)[C@H](C)NC(=O)[C@H](CC(N)=O)NC(=O)[C@H](Cc1c[nH]cn1)NC(=O)[C@H](CO)NC(=O)[C@H](CO)NC(=O)[C@@H](N)CCCCNS(=O)(=O)c1cccc2c(N(C)C)cccc12)C(=O)N[C@@H](CCCNC(=N)N)C(=O)N[C@H](C(=O)N[C@@H](CCCNC(=N)N)C(N)=O)[C@@H](C)O` [ZElan077] (H-K(Dansyl)SSHNARLRTR-NH2), in series [2], the “Binding value at 50 μg/ml (Southern Ab)” value was 0.52 and the “Binding value at 20 μg/ml” value was 0.20. For the same compound, the “Binding value at 50 μg/ml” value in series [2] (first 50 μg/ml column) was 0.76. Moreover, in series [2] (second 50 μg/ml column), the “Binding value at 50 μg/ml” value is reported as 0.54. In addition, the “Binding value at 50 μg/ml (Jackson Ab)” value in series [3] was 0.73.
The corresponding values for `CC(C)C[C@H](NC(=O)[C@H](CCCNC(=N)N)NC(=O)[C@H](CCCNC(=N)N)NC(=O)[C@H](CC(N)=O)NC(=O)[C@H](C)NC(=O)[C@H](CO)NC(=O)[C@H](CO)NC(=O)[C@@H](N)CCCCNS(=O)(=O)c1cccc2c(N(C)C)cccc12)C(=O)N[C@@H](CCCNC(=N)N)C(=O)N[C@H](C(=O)N[C@@H](CCCNC(=N)N)C(N)=O)[C@@H](C)O` [ZElan075] (H-K(Dansyl)SSANRRLRTR-NH2) are 0.32, 0.13, 0.52, 0.38 and 0.47.
